# pIC50: −log10 of the molar value.
# Biological target: HDM2 protein (Homo sapiens, UniProt Q00987)
# Assay: fluorescence polarization screening assay (FP IC50)
# Format: binding
# Settings: class symbols
# Experimental: The compounds were evaluated to determine activity at the HDM2 protein by known methods such as the fluorescence polarization screening assay that measures the inhibitory concentration that achieves 50% of maximal activity (FP IC50) and the dissociation constant for inhibitor binding (FP Ki). [Zhang et al., J. Analytical Biochemistry 331: 138-146 (2004)].
# Sequence of HDM2 protein (Q00987 whole entry): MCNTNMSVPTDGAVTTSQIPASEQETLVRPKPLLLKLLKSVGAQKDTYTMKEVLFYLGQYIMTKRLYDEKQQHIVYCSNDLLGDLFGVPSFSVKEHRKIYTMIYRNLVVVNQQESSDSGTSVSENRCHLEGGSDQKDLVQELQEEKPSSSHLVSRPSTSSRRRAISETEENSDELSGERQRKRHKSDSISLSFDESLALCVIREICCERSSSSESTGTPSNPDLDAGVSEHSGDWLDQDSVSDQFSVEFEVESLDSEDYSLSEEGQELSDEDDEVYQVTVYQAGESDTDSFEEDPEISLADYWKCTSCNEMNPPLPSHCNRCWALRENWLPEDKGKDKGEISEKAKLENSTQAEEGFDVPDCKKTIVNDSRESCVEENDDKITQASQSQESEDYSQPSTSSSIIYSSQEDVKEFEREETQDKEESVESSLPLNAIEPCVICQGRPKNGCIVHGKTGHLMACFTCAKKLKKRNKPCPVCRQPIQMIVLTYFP
row,SMILES,pIC50
1,"CCC[C@H]1N(C(=O)c2ncccc2C(F)(F)F)CCC[C@@]1(Oc1csc(C(F)(F)F)c1)C(=O)N1CCc2ccsc2C1CC(C)(C)C(=O)NCc1nnn[nH]1 (stereo partly drawn) [Compound A30, 2,2-dimethyl-3-(6-{[(2R,3S)-2-propyl-1-{[3-(trifluoromethyl)pyridin-2-yl]carbonyl}-3-{[5-(trifluoromethyl)thiophen-3-yl]oxy}piperidin-3-yl]carbonyl}-4,5,6,7-tetrahydrothieno[2,3-c]pyridin-7-yl)-N-(1H-tetrazol-5-ylmethyl)propanamide]",7.00 to 9.00
2,"CCC[C@H]1N(C(=O)c2ncccc2C(F)(F)F)CCC[C@@]1(Oc1csc(C(F)(F)F)c1)C(=O)N1Cc2cc(F)ccc2C[C@H]1CCC(=O)O [Compound A147, 3-[(3R)-7-fluoro-2-{[(2R,3S)-2-propyl-1-{[3-(trifluoromethyl)pyridin-2-yl]carbonyl}-3-{[5-(trifluoromethyl)thiophen-3-yl]oxy}piperidin-3-yl]carbonyl}-1,2,3,4-tetrahydroisoquinolin-3-yl]propanoic acid]",7.00 to 9.00
3,"CCC[C@H]1N(C(=O)c2ncccc2C(F)(F)F)CCC[C@@]1(Oc1csc(C(F)(F)F)c1)C(=O)N1CCc2cc(Cl)ccc2C1C(N)=O (stereo partly drawn) [Compound A75, 6-chloro-2-{[(2R,3S)-2-propyl-1-{[3-(trifluoromethyl)pyridin-2-yl]carbonyl}-3-{[5-(trifluoromethyl)thiophen-3-yl]oxy}piperidin-3-yl]carbonyl}-1,2,3,4-tetrahydroisoquinoline-1-carboxamide]",7.00 to 9.00
4,"CCC[C@H]1N(C(=O)c2ncccc2C(F)(F)F)CCC[C@@]1(Oc1csc(C(F)(F)F)c1)C(=O)N1Cc2ccc(F)cc2C[C@H]1C[C@H](C(=O)O)C(C)C [Compound A153, (2S)-2-{[(3R)-6-fluoro-2-{[(2R,3S)-2-propyl-1-{[3-(trifluoromethyl)pyridin-2-yl]carbonyl}-3-{[5-(trifluoromethyl)thiophen-3-yl]oxy}piperidin-3-yl]carbonyl}-1,2,3,4-tetrahydroisoquinolin-3-yl]methyl}-3-methylbutanoic acid]",7.00 to 9.00
5,"CCC[C@H]1N(C(=O)c2ncccc2C(F)(F)F)CCC[C@@]1(Oc1csc(C(F)(F)F)c1)C(=O)N1CCc2cc(Cl)ccc2C1CC(C)(C)C(=O)O (stereo partly drawn) [Compound A64, 3-(6-chloro-2-{[(2R,3S)-2-propyl-1-{[3-(trifluoromethyl)pyridin-2-yl]carbonyl}-3-{[5-(trifluoromethyl)thiophen-3-yl]oxy}piperidin-3-yl]carbonyl}-1,2,3,4-tetrahydroisoquinolin-1-yl)-2,2-dimethylpropanoic acid]",7.00 to 9.00
6,"CCC[C@H]1N(C(=O)c2ncccc2C(F)(F)F)CCC[C@@]1(Oc1csc(C(F)(F)F)c1)C(=O)N1Cc2ccc(Cl)cc2C[C@H]1CCC(=O)O [Compound A143, 3-[(3R)-6-chloro-2-{[(2R,3S)-2-propyl-1-{[3-(trifluoromethyl)pyridin-2-yl]carbonyl}-3-{[5-(trifluoromethyl)thiophen-3-yl]oxy}piperidin-3-yl]carbonyl}-1,2,3,4-tetrahydroisoquinolin-3-yl]propanoic acid]",7.00 to 9.00
7,"CCC[C@H]1N(C(=O)c2ncccc2C(F)(F)F)CCC[C@@]1(Oc1csc(C(F)(F)F)c1)C(=O)N1CCc2cc(Cl)ccc2[C@H]1CCC(=O)N1CCC(C(=O)O)CC1 [Compound A98, 1-{3-[(1R)-6-chloro-2-{[(2R,3S)-2-propyl-1-{[3-(trifluoromethyl)pyridin-2-yl]carbonyl}-3-{[5-(trifluoromethyl)thiophen-3-yl]oxy}piperidin-3-yl]carbonyl}-1,2,3,4-tetrahydroisoquinolin-1-yl]propanoyl}piperidine-4-carboxylic acid]",7.00 to 9.00
8,"CCC[C@H]1N(C(=O)c2ncccc2C(F)(F)F)CCC[C@@]1(Oc1csc(C(F)(F)F)c1)C(=O)N1Cc2ccc(Cl)cc2C[C@@H]1C(=O)NC1CCOCC1 [Compound A166, (3R)-6-chloro-2-{[(2R,3S)-2-propyl-1-{[3-(trifluoromethyl)pyridin-2-yl]carbonyl}-3-{[5-(trifluoromethyl)thiophen-3-yl]oxy}piperidin-3-yl]carbonyl}-N-(tetrahydro-2H-pyran-4-yl)-1,2,3,4-tetrahydroisoquinoline-3-carboxamide]",7.00 to 9.00
9,"CCC[C@H]1N(C(=O)c2ncccc2C(F)(F)F)CCC[C@@]1(Oc1csc(C(F)(F)F)c1)C(=O)N1CCc2cc(F)ccc2C1CCC(=O)O (stereo partly drawn) [Compound A44, 3-(6-fluoro-2-{[(2R,3S)-2-propyl-1-{[3-(trifluoromethyl)pyridin-2-yl]carbonyl}-3-{[5-(trifluoromethyl)thiophen-3-yl]oxy}piperidin-3-yl]carbonyl}-1,2,3,4-tetrahydroisoquinolin-1-yl)propanoic acid]",7.00 to 9.00
10,"CCC[C@H]1N(C(=O)c2ncccc2C(F)(F)F)CCC[C@@]1(Oc1csc(C(F)(F)F)c1)C(=O)N1CCc2cc(Cl)ccc2C1COCC(=O)O (stereo partly drawn) [Compound A181, [(6-chloro-2-{[(2R,3S)-2-propyl-1-{[3-(trifluoromethyl)pyridin-2-yl]carbonyl}-3-{[5-(trifluoromethyl)thiophen-3-yl]oxy}piperidin-3-yl]carbonyl}-1,2,3,4-tetrahydroisoquinolin-1-yl)methoxy]acetic acid]",7.00 to 9.00
11,"CCC[C@H]1N(C(=O)c2ncccc2C(F)(F)F)CCC[C@@]1(Oc1csc(C(F)(F)F)c1)C(=O)N1CCc2cc(Cl)ccc2C1CO (stereo partly drawn) [Compound A103, (6-chloro-2-{[(2R,3S)-2-propyl-1-{[3-(trifluoromethyl)pyridin-2-yl]carbonyl}-3-{[5-(trifluoromethyl)thiophen-3-yl]oxy}piperidin-3-yl]carbonyl}-1,2,3,4-tetrahydroisoquinolin-1-yl)methanol]",4.70 to 7.00
12,"CCC[C@H]1N(C(=O)c2ncccc2C(F)(F)F)CCC[C@@]1(Oc1csc(C(F)(F)F)c1)C(=O)N1Cc2ccc(F)cc2C[C@H]1CCC(=O)O [Compound A127, 3-[(3R)-6-fluoro-2-{[(2R,3S)-2-propyl-1-{[3-(trifluoromethyl)pyridin-2-yl]carbonyl}-3-{[5-(trifluoromethyl)thiophen-3-yl]oxy}piperidin-3-yl]carbonyl}-1,2,3,4-tetrahydroisoquinolin-3-yl]propanoic acid]",7.00 to 9.00
13,"CCC[C@H]1N(C(=O)c2ncccc2C(F)(F)F)CCC[C@@]1(Oc1csc(C(F)(F)F)c1)C(=O)N1Cc2ccc(Cl)cc2C[C@@H]1C[C@H](CC)C(=O)O [Compound A165, (2S)-2-{[(3S)-6-chloro-2-{[(2R,3S)-2-propyl-1-{[3-(trifluoromethyl)pyridin-2-yl]carbonyl}-3-{[5-(trifluoromethyl)thiophen-3-yl]oxy}piperidin-3-yl]carbonyl}-1,2,3,4-tetrahydroisoquinolin-3-yl]methyl}butanoic acid]",7.00 to 9.00
14,"CCC[C@H]1N(C(=O)c2ncccc2C(F)(F)F)CCC[C@@]1(Oc1csc(C(F)(F)F)c1)C(=O)N1Cc2ccc(Cl)cc2C[C@@H]1C(=O)N1CCC[C@@H](O)C1 [Compound A170, (3R)-1-{[(3R)-6-chloro-2-{[(2R,3S)-2-propyl-1-{[3-(trifluoromethyl)pyridin-2-yl]carbonyl}-3-{[5-(trifluoromethyl)thiophen-3-yl]oxy}piperidin-3-yl]carbonyl}-1,2,3,4-tetrahydroisoquinolin-3-yl]carbonyl}piperidin-3-ol]",7.00 to 9.00
15,"CCN1CCN(CC[C@H]2N(C(=O)c3ncccc3C(F)(F)F)CCC[C@@]2(Oc2csc(C(F)(F)F)c2)C(=O)N2CCc3cc(Cl)ccc3C2)CC1 [Compound A114, 6-chloro-2-{[(2R,3S)-2-[2-(4-ethylpiperazin-1-yl)ethyl]-1-{[3-(trifluoromethyl)pyridin-2-yl]carbonyl}-3-{[5-(trifluoromethyl)thiophen-3-yl]oxy}piperidin-3-yl]carbonyl}-1,2,3,4-tetrahydroisoquinoline]",7.00 to 9.00
16,"CCC[C@H]1N(C(=O)c2ncccc2C(F)(F)F)CCC[C@@]1(Oc1csc(C(F)(F)F)c1)C(=O)N1CCc2cc(F)ccc2C1CCCCC(=O)O (stereo partly drawn) [Compound A40, 5-(6-fluoro-2-{[(2R,3S)-2-propyl-1-{[3-(trifluoromethyl)pyridin-2-yl]carbonyl}-3-{[5-(trifluoromethyl)thiophen-3-yl]oxy}piperidin-3-yl]carbonyl}-1,2,3,4-tetrahydroisoquinolin-1-yl)pentanoic acid]",7.00 to 9.00
17,"CCC[C@H]1N(C(=O)c2ncccc2C(F)(F)F)CCC[C@@]1(Oc1csc(C(F)(F)F)c1)C(=O)N1CCc2cc(Cl)ccc2C1CN1CCCC1 (stereo partly drawn) [Compound A15, 6-chloro-2-{[(2R,3S)-2-propyl-1-{[3-(trifluoromethyl)pyridin-2-yl]carbonyl}-3-{[5-(trifluoromethyl)thiophen-3-yl]oxy}piperidin-3-yl]carbonyl}-1-(pyrrolidin-1-ylmethyl)-1,2,3,4-tetrahydroisoquinoline]",4.70 to 7.00
18,"CCC[C@H]1N(C(=O)c2ncccc2C(F)(F)F)CCC[C@@]1(Oc1csc(C(F)(F)F)c1)C(=O)N1CCc2cc(F)ccc2C1C(=O)O (stereo partly drawn) [Compound A104, 6-fluoro-2-{[(2R,3S)-2-propyl-1-{[3-(trifluoromethyl)pyridin-2-yl]carbonyl}-3-{[5-(trifluoromethyl)thiophen-3-yl]oxy}piperidin-3-yl]carbonyl}-1,2,3,4-tetrahydroisoquinoline-1-carboxylic acid]",7.00 to 9.00
19,"CCC[C@H]1N(C(=O)c2ncccc2C(F)(F)F)CCC[C@@]1(Oc1csc(C(F)(F)F)c1)C(=O)N1CCc2cc(Br)ccc2C1 [Compound A50, 6-bromo-2-{[(2R,3S)-2-propyl-1-{[3-(trifluoromethyl)pyridin-2-yl]carbonyl}-3-{[5-(trifluoromethyl)thiophen-3-yl]oxy}piperidin-3-yl]carbonyl}-1,2,3,4-tetrahydroisoquinoline]",7.00 to 9.00
20,"CCC[C@H]1N(C(=O)c2ncccc2C(F)(F)F)CCC[C@@]1(Oc1csc(C(F)(F)F)c1)C(=O)N1Cc2ccc(Cl)cc2C[C@@H]1C[C@H](C)C(=O)O [Compound A137, (2S)-3-[(3S)-6-chloro-2-{[(2R,3S)-2-propyl-1-{[3-(trifluoromethyl)pyridin-2-yl]carbonyl}-3-{[5-(trifluoromethyl)thiophen-3-yl]oxy}piperidin-3-yl]carbonyl}-1,2,3,4-tetrahydroisoquinolin-3-yl]-2-methylpropanoic acid]",7.00 to 9.00
